For 20 compounds, T/C results are on record in PubChem BioAssay AID330 (DTP/NCI, 2004).

“And” between values parts separate entries of the source, which are not always exact repeats. Equal values may be shown once. Toxic doses and inconclusive results are not listed.

The subject of this test is P388 leukemia ip, CD2F1 mice, survival T/C. The test can be described thus: NCI In Vivo Anticancer Drug Screen. Data for tumor model P388 Leukemia (intraperitoneal) in CD2F1 (CDF1) mice. The following applies: endpoint: median survival time, higher = longer survival. The method in brief: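 Mice carrying the transplanted tumor received test compound or vehicle. Survival was recorded in each group, and the value is the treated-group measurement divided by that of the vehicle-treated control group.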

Where [1] appears, read: dose: 25.0 mg/kg/injection, schedule: Q01DX009 (ip), vehicle: saline with Tween-80.
Where [2] appears, read: dose: 50.0 mg/kg/injection, schedule: Q01DX009 (ip), vehicle: saline with Tween-80.
The mark [3] stands for this setting: dose: 100.0 mg/kg/injection, schedule: Q01DX009 (ip), vehicle: saline with Tween-80.
[4] abbreviates: dose: 200.0 mg/kg/injection, schedule: Q01DX009 (ip), vehicle: saline with Tween-80.
Where [5] appears, read: dose: 100.0 mg/kg/injection, schedule: Q04DX003 (ip), vehicle: Klucel (hydroxypropylcellulose) (HPC).
The mark [6] stands for this setting: dose: 200.0 mg/kg/injection, schedule: Q04DX003 (ip), vehicle: Klucel (hydroxypropylcellulose) (HPC).
[7] abbreviates: dose: 50.0 mg/kg/injection, schedule: Q01DX005 (ip), vehicle: saline.
Setting [8] is: dose: 100.0 mg/kg/injection, schedule: Q01DX005 (ip), vehicle: saline.
[9] abbreviates: dose: 200.0 mg/kg/injection, schedule: Q01DX005 (ip), vehicle: saline.
[10] abbreviates: dose: 50.0 mg/kg/injection, schedule: Q04DX003 (ip), vehicle: Klucel (hydroxypropylcellulose) (HPC).
The mark [11] stands for this setting: dose: 50.0 mg/kg/injection, schedule: Q01DX005 (ip), vehicle: saline with Tween-80.
[12] abbreviates: dose: 100.0 mg/kg/injection, schedule: Q01DX005 (ip), vehicle: saline with Tween-80.
Setting [13] is: dose: 200.0 mg/kg/injection, schedule: Q01DX005 (ip), vehicle: saline with Tween-80.

In the case of `CN(c1ccccc1)S(=O)(=O)c1ccc2ccccc2c1O`, the T/C by setting is: (dose: 100.0 mg/kg/injection, schedule: Q01DX001 (ip), vehicle: saline with Tween-80) 101 % of control; (dose: 200.0 mg/kg/injection, schedule: Q01DX001 (ip), vehicle: saline with Tween-80) 100 % of control; (dose: 400.0 mg/kg/injection, schedule: Q01DX001 (ip), vehicle: saline with Tween-80) 91 % of control.

With `CN(/N=N/N(C)c1ccccc1)c1ccccc1`, the T/C is, setting by setting: under setting [1], 103 % of control and 93 % of control; (dose: 44.0 mg/kg/injection, schedule: Q01DX009 (ip), vehicle: saline with Tween-80) 118 % of control; under setting [2], 101 % of control and 107 % of control; (dose: 66.0 mg/kg/injection, schedule: Q01DX009 (ip), vehicle: saline with Tween-80) 104 % of control; under setting [3], 98 % of control and 110 % of control and 90 % of control; (dose: 150.0 mg/kg/injection, schedule: Q01DX009 (ip), vehicle: saline with Tween-80) 100 % of control. The T/C was 103 % of control and 94 % of control under setting [4]; 100 % of control and 86 % of control (dose: 400.0 mg/kg/injection, schedule: Q01DX009 (ip), vehicle: saline with Tween-80).

Consider `CCCCCCCCCCCCCCCCCCON`, for which the T/C under setting [5] is 97 % of control; the T/C under setting [6] is 92 % of control; the T/C (dose: 400.0 mg/kg/injection, schedule: Q04DX003 (ip), vehicle: Klucel (hydroxypropylcellulose) (HPC)) was 94 % of control.

Turning to `CC(=O)OCC1OC(n2cccnc2=O)C(OC(C)=O)C1OC(C)=O` (centres undefined), the T/C is, setting by setting: under setting [7], 107 % of control; under setting [8], 107 % of control; under setting [9], 107 % of control; (dose: 400.0 mg/kg/injection, schedule: Q01DX005 (ip), vehicle: saline) 102 % of control.

With `NC(N)=Nc1nc2ccccc2o1`, the T/C by setting is: under setting [10], 90 % of control; under setting [5], 100 % of control; under setting [6], 100 % of control.

`CCOc1c(N=Nc2ccccc2OC)c(C)nn1C(=S)S`: the T/C reads like this: (dose: 60.0 mg/kg/injection, schedule: Q01DX005 (ip), vehicle: Klucel (hydroxypropylcellulose) (HPC)) 102 % of control; (dose: 120.0 mg/kg/injection, schedule: Q01DX005 (ip), vehicle: Klucel (hydroxypropylcellulose) (HPC)) 114 % of control; (dose: 240.0 mg/kg/injection, schedule: Q01DX005 (ip), vehicle: Klucel (hydroxypropylcellulose) (HPC)) 105 % of control.

As for `CC1=C/C(=C\C(=O)N2CCCCC2)N=C(N[N+](=O)[O-])N1`, the T/C (dose: 50.0 mg/kg/injection, schedule: Q01DX009 (ip), vehicle: distilled water + Tween-80 + alcohol) is 111 % of control; the T/C (dose: 100.0 mg/kg/injection, schedule: Q01DX009 (ip), vehicle: distilled water + Tween-80 + alcohol) was 115 % of control; the T/C (dose: 200.0 mg/kg/injection, schedule: Q01DX009 (ip), vehicle: distilled water + Tween-80 + alcohol) was 105 % of control.

`CN1CCC(O)(C(=O)c2ccccc2)CC1`: the T/C (dose: 100.0 mg/kg/injection, schedule: Q04DX002 (ip), vehicle: saline) was 99 % of control and 104 % of control; the T/C (dose: 200.0 mg/kg/injection, schedule: Q04DX002 (ip), vehicle: saline) was 103 % of control.

In the case of `CCOC(=O)/C(C#N)=C(\C)c1ccc(O)c(OC)c1`, the T/C is, setting by setting: (dose: 60.0 mg/kg/injection, schedule: Q01DX005 (ip), vehicle: saline with Tween-80) 100 % of control; (dose: 120.0 mg/kg/injection, schedule: Q01DX005 (ip), vehicle: saline with Tween-80) 101 % of control; (dose: 240.0 mg/kg/injection, schedule: Q01DX005 (ip), vehicle: saline with Tween-80) 95 % of control.

Take `CC1=CC(=O)C=CC1=Nc1ccc(N(CCCl)CCCl)cc1`: the T/C is, setting by setting: under setting [10], 103 % of control; under setting [5], 102 % of control.

With `CC(=O)NC1C(NNC(=O)c2ccncc2)OC(CO)C(O)C1O` (centres undefined), the T/C under setting [7] was 100 % of control, the T/C under setting [8] was 96 % of control and the T/C under setting [9] is 104 % of control.

For `CC(C)NC(=O)OCc1c(COC(=O)NC(C)C)c(-c2ccc(Cl)cc2)n2c1CCC2`, the T/C was 161 % of control (dose: 3.12 mg/kg/injection, schedule: Q01DX005 (ip), vehicle: distilled water + Tween-80); 152 % of control (dose: 6.25 mg/kg/injection, schedule: Q01DX005 (ip), vehicle: distilled water + Tween-80); 186 % of control and 190 % of control (dose: 12.5 mg/kg/injection, schedule: Q01DX005 (ip), vehicle: distilled water + Tween-80); 186 % of control (dose: 25.0 mg/kg/injection, schedule: Q01DX005 (ip), vehicle: distilled water + Tween-80); 110 % of control and 93 % of control (dose: 50.0 mg/kg/injection, schedule: Q01DX005 (ip), vehicle: distilled water + Tween-80).

Consider `COC1/C=C/OC2(C)Oc3c(C)c(O)c4c(O)c(c(/C=N/N(C)C5OC(COC(=O)c6ccccc6)C(OC(=O)c6ccccc6)C5OC(=O)c5ccccc5)c(O)c4c3C2=O)NC(=O)C(C)=C/C=C/C(C)C(O)C(C)C(O)C(C)C(OC(C)=O)C1C` (centres undefined), for which the T/C (dose: 12.5 mg/kg/injection, schedule: Q01DX009 (ip), vehicle: saline with Tween-80) was 104 % of control; the T/C under setting [1] is 107 % of control; the T/C under setting [2] was 108 % of control and 112 % of control; the T/C under setting [3] was 114 % of control; the T/C under setting [4] was 117 % of control.

`COc1ccc2[nH]c3c(c2c1)-c1ncncc1CC3`: the T/C is 100 % of control under setting [11], 97 % of control under setting [12] and 106 % of control under setting [13].

As to `COC1C(C2CC(=O)NC(=O)C2)OC2OC(C)(C)OC21` (centres undefined), the T/C under setting [11] is 104 % of control, the T/C under setting [12] was 107 % of control and the T/C under setting [13] was 104 % of control.

As for `C=C(Cl)C(=NC(C)(C)C)Nc1ccccc1C`, the T/C (dose: 1.56 mg/kg/injection, schedule: Q01DX005 (ip), vehicle: saline) was 100 % of control; the T/C (dose: 3.12 mg/kg/injection, schedule: Q01DX005 (ip), vehicle: Klucel (hydroxypropylcellulose) (HPC)) was 103 % of control; the T/C (dose: 3.12 mg/kg/injection, schedule: Q01DX005 (ip), vehicle: saline) was 102 % of control; the T/C (dose: 6.25 mg/kg/injection, schedule: Q01DX005 (ip), vehicle: Klucel (hydroxypropylcellulose) (HPC)) was 107 % of control and 117 % of control; the T/C (dose: 6.25 mg/kg/injection, schedule: Q01DX005 (ip), vehicle: saline) is 109 % of control and 118 % of control; the T/C (dose: 12.5 mg/kg/injection, schedule: Q01DX005 (ip), vehicle: Klucel (hydroxypropylcellulose) (HPC)) was 117 % of control. The T/C is, setting by setting: (dose: 12.5 mg/kg/injection, schedule: Q01DX005 (ip), vehicle: saline) 108 % of control; (dose: 25.0 mg/kg/injection, schedule: Q01DX005 (ip), vehicle: Klucel (hydroxypropylcellulose) (HPC)) 121 % of control.

On to `CC/C(=C(/CC)c1ccc(O)cc1)c1ccc(O)cc1`, for which the T/C (dose: 50.0 mg/kg/injection, schedule: Q01DX008 (ip), vehicle: saline with Tween-80) is 101 % of control; the T/C (dose: 100.0 mg/kg/injection, schedule: Q01DX008 (ip), vehicle: saline with Tween-80) is 97 % of control; the T/C (dose: 200.0 mg/kg/injection, schedule: Q01DX008 (ip), vehicle: saline with Tween-80) was 106 % of control; the T/C (dose: 400.0 mg/kg/injection, schedule: Q01DX008 (ip), vehicle: saline with Tween-80) was 99 % of control.

As for `O=S(=O)(O)SCCN1CCCC1`, the T/C by setting is: (dose: 12.5 mg/kg/injection, schedule: Q01DX009 (ip), vehicle: saline) 105 % of control; (dose: 25.0 mg/kg/injection, schedule: Q01DX009 (ip), vehicle: saline) 110 % of control; (dose: 50.0 mg/kg/injection, schedule: Q01DX009 (ip), vehicle: saline) 110 % of control.

Take `CC(C)(C)c1ccc(-c2nnc(C(F)(F)F)nn2)cc1`: the T/C reads like this: under setting [2], 100 % of control; under setting [3], 100 % of control; under setting [4], 108 % of control.

Consider `C1COC(NC2CC3CCC2C3)=N1` (centres undefined), for which the T/C was 100 % of control (dose: 6.25 mg/kg/injection, schedule: Q04DX003 (ip), vehicle: saline with Tween-80); 100 % of control (dose: 12.5 mg/kg/injection, schedule: Q04DX003 (ip), vehicle: saline with Tween-80); 100 % of control (dose: 25.0 mg/kg/injection, schedule: Q04DX003 (ip), vehicle: saline with Tween-80).
